According to patent US20230116602A1, “MCL1 INHIBITORS AND USES THEREOF” (California Institute of Technology, priority 2019, published 2023):

Assays:
MCL1 = MCL1 (Homo sapiens, UniProt Q07820); assay: MCL1 affinity assay (competition binding, qPCR readout); details: recombinant MCL1, 11-point 3-fold dilution series
Method in brief: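 Kds derived from an 11-point 3-fold compound series measured by qPCR of protein eluted from ligand beads. Recombinant, DNA-tagged protein from E. coli or HEK-293 was mixed with compound and peptide-liganded beads in SeaBlock/PBS/Tween/DTT buffer for 1 hour at room temperature (0.9% DMSO).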

BCL2 = BCL2 (Homo sapiens, UniProt P10415); assay: BCL2 affinity assay (competition binding, qPCR readout); details: recombinant BCL2, 11-point 3-fold dilution series
BCL2, sequence (P10415 whole entry): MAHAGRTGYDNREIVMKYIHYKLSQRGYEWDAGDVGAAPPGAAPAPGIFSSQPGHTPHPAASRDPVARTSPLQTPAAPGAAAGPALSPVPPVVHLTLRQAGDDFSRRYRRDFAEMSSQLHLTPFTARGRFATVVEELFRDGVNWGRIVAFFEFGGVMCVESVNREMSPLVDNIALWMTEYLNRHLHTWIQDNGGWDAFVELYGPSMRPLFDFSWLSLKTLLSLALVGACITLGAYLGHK
Protocol: (§1) Recombinant MCL1, BCL2 and BCXL proteins were prepared in either an E. coli host derived from the BL21 strain or in HEK-293 cells. The recombinant proteins were subsequently tagged with DNA for qPCR detection. Streptavidin-coated magnetic beads were treated for 30 minutes at room temperature with the respective biotinylated peptide ligands for each recombinant protein to generate affinity resins for the assays. The liganded beads were blocked with excess biotin and washed with blocking buffer (SeaBlock (Pierce), 1% BSA, 0.05% Tween 20, 1 mM DTT) to remove unbound ligand and to reduce nonspecific binding. Binding reactions were assembled by combining recombinant protein, liganded affinity beads, and test compounds in 1× binding buffer (20% SeaBlock, 0.17×PBS, 0.05% Tween 20, 6 mM DTT). Test compounds were prepared as 111X stocks in 100% DMSO. The compounds were then diluted directly into the assays such that the final concentration of DMSO was 0.9%. The assay plates were incubated at room temperature with shaking for 1 hour and the affinity beads were washed with wash buffer (1×PBS, 0.05% Tween 20). The beads were then re-suspended in elution buffer (1×PBS, 0.05% Tween 20, 0.5 μM non-biotinylated affinity ligand) and incubated at room temperature with shaking for 30 minutes. The recombinant protein concentration in the eluates was measured by qPCR. Kds were determined using an 11-point 3-fold compound dilution series with three DMSO control points.

BCLXL = BCLXL (Homo sapiens, UniProt Q07817); assay: BCLXL affinity assay (competition binding, qPCR readout); details: recombinant BCLXL, 11-point 3-fold dilution series
BCLXL, sequence (Q07817 whole entry): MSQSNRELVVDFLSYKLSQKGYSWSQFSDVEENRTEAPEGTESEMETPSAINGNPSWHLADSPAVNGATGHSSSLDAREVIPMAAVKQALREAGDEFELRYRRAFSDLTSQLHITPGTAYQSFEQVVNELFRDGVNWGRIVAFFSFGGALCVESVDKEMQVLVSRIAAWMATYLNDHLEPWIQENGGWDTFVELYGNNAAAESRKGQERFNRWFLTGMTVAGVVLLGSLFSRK
Protocol: as §1

[1] = test system: drug-sensitive cell lines of Table 3; assay: Cell line growth retardation assay, sensitive cohort; type: cell-based, Human; details: for IC50: Homo sapiens, 144 h, arithmetic mean of IC50s over the sensitive cohort of Table 3, 6 days growth, read-out: AvgSen IC50; for Fold Diff: average IC50 of resistant cohort divided by average IC50 of sensitive cohort
Method in brief: (§2)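 Over 6 days of treatment at six concentrations (0.0032–10 μM), given after a 24 h post-seeding rest, population doublings were counted by imaging against a pre-dose baseline and compared with vehicle. Per-line IC50 values came from dose-response fits; cohort averages used arithmetic means, with sensitive/resistant grouping based on response to reference MCL1 inhibitors.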

[2] = test system: drug-resistant cell lines of Table 3; assay: Cell line growth retardation assay, resistant cohort; type: cell-based, Human; details: Homo sapiens, 144 h; arithmetic mean of IC50s over the resistant cohort of Table 3, 6 days growth; read-out: AvgRes IC50
Method in brief: as §2

MCL1, sequence (Q07820 whole entry): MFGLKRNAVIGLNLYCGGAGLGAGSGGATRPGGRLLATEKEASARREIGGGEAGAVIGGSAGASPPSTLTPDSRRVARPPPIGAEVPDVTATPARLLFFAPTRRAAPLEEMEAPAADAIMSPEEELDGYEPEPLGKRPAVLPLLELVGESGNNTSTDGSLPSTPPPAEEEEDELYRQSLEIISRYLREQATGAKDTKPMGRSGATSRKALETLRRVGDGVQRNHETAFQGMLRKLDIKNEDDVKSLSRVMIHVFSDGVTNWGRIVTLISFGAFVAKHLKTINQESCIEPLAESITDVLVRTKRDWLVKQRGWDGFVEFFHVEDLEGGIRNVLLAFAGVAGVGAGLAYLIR

Kd (MCL1) [µM]	Kd (BCL2) [µM]	Kd (BCLXL) [µM]	SMILES	IC50 [1] [µM]	Fold Diff [1]	IC50 [2] [µM]
> 1.5	> 1.5	> 1.5	Cc1c(-c2c(-c3cccc4ccccc34)ncc3snc(O[C@H](Cc4ccccc4OCc4ccnn4CC(F)(F)F)C(=O)O)c23)ccc(OCCN2CCN(C)CC2)c1Cl (atropisomer, axis not shown) [Compound 7]	> 5	− (“−” represents a fold difference less than 10)	> 5
> 1.5	> 1.5	> 1.5	Cc1c(-c2c(-c3cccc4c3NC(=O)C4)ncc3snc(O[C@H](Cc4ccccc4OCc4ccnn4CC(F)(F)F)C(=O)O)c23)ccc(OCCN2CCN(C)CC2)c1Cl (atropisomer, axis not shown) [Compound 12]	> 5	− (“−” represents a fold difference less than 10)	> 5
> 1.5	> 1.5	> 1.5	Cc1c(-c2c(-c3cccc4c3CCC4)ncc3snc(O[C@H](Cc4ccccc4OCc4ccnn4CC(F)(F)F)C(=O)O)c23)ccc(OCCN2CCN(C)CC2)c1Cl (atropisomer, axis not shown) [Compound 13]	> 5	− (“−” represents a fold difference less than 10)	> 5
0.101 to 0.5	> 1.5	> 1.5	Cc1c(-c2c(-c3ccc(F)c4ccoc34)ncc3snc(O[C@H](Cc4ccccc4OCc4ccnn4CC(F)(F)F)C(=O)O)c23)ccc(OCCN2CCN(C)CC2)c1Cl (atropisomer, axis not shown) [Compound 14]	1 to 5	− (“−” represents a fold difference less than 10)	> 5
0.501 to 1.5	0.501 to 1.5	> 1.5	Cc1c(-c2c(-c3cccc4c3ccn4C)ncc3snc(O[C@H](Cc4ccccc4OCc4ccnn4CC(F)(F)F)C(=O)O)c23)ccc(OCCN2CCN(C)CC2)c1Cl (atropisomer, axis not shown) [Compound 15]	> 5	− (“−” represents a fold difference less than 10)	> 5
> 1.5	> 1.5	> 1.5	Cc1c(-c2c(-c3cccc4[nH]c(C(F)(F)F)cc34)ncc3snc(O[C@H](Cc4ccccc4OCc4ccnn4CC(F)(F)F)C(=O)O)c23)ccc(OCCN2CCN(C)CC2)c1Cl (atropisomer, axis not shown) [Compound 16]	> 5	− (“−” represents a fold difference less than 10)	> 5
0.501 to 1.5	> 1.5	> 1.5	Cc1cc2cccc(-c3ncc4snc(O[C@H](Cc5ccccc5OCc5ccnn5CC(F)(F)F)C(=O)O)c4c3-c3ccc(OCCN4CCN(C)CC4)c(Cl)c3C)c2[nH]1 (atropisomer, axis not shown) [Compound 17]	> 5	− (“−” represents a fold difference less than 10)	> 5
> 1.5	> 1.5	> 1.5	Cc1c(-c2c(-c3cccc4cc[nH]c34)ncc3snc(O[C@H](Cc4ccccc4OCc4ccnn4CC(F)(F)F)C(=O)O)c23)ccc(OCCN2CCN(C)CC2)c1Cl (atropisomer, axis not shown) [Compound 18]	> 5	− (“−” represents a fold difference less than 10)	> 5
> 1.5	> 1.5	> 1.5	Cc1c(-c2c(-c3csc4ccccc34)ncc3snc(O[C@H](Cc4ccccc4OCc4ccnn4CC(F)(F)F)C(=O)O)c23)ccc(OCCN2CCN(C)CC2)c1Cl (atropisomer, axis not shown) [Compound 19]	1 to 5	− (“−” represents a fold difference less than 10)	> 5
0.501 to 1.5	> 1.5	> 1.5	Cc1c(-c2c(-c3cn(C)c4ccccc34)ncc3snc(O[C@H](Cc4ccccc4OCc4ccnn4CC(F)(F)F)C(=O)O)c23)ccc(OCCN2CCN(C)CC2)c1Cl (atropisomer, axis not shown) [Compound 20]	> 5	− (“−” represents a fold difference less than 10)	> 5

The next lines start with the molecule.

SMILES	Kd (MCL1) [µM]	Kd (BCL2) [µM]	Kd (BCLXL) [µM]	IC50 [1] [µM]	Fold Diff [1]	IC50 [2] [µM]
Cc1c(-c2c(-c3cccc4c3sc3ccccc34)ncc3snc(O[C@H](Cc4ccccc4OCc4ccnn4CC(F)(F)F)C(=O)O)c23)ccc(OCCN2CCN(C)CC2)c1Cl (atropisomer, axis not shown) [Compound 9]	> 1.5	> 1.5	> 1.5	> 5	− (“−” represents a fold difference less than 10)	> 5
Cc1c(-c2c(-c3ccc4c(ccn4C)c3)ncc3snc(O[C@H](Cc4ccccc4OCc4ccnn4CC(F)(F)F)C(=O)O)c23)ccc(OCCN2CCN(C)CC2)c1Cl (atropisomer, axis not shown) [Compound 10]	> 1.5	> 1.5	> 1.5	> 5	− (“−” represents a fold difference less than 10)	> 5
Cc1c(-c2c(-c3cnn(C)c3)ncc3snc(O[C@H](Cc4ccccc4OCc4ccnn4CC(F)(F)F)C(=O)O)c23)ccc(OCCN2CCN(C)CC2)c1Cl (atropisomer, axis not shown) [Compound 28]	0.501 to 1.5	> 1.5	> 1.5			
COc1cccc(-c2ncc3snc(O[C@H](Cc4ccccc4OCc4ccnc(-c5ccccc5OC)n4)C(=O)O)c3c2-c2ccc(OC[C@H]3CCCN3C)c(Cl)c2C)c1 (atropisomer, axis not shown) [Compound 48]	≤ 0.1	> 1.5	> 1.5			
COc1cccc(-c2ncc3snc(O[C@H](Cc4ccccc4OCc4ccnc(OCCCC(F)(F)F)n4)C(=O)O)c3c2-c2ccc(OCCN3CCN(C)CC3)c(Cl)c2C)c1 [Compound 59]	0.101 to 0.5			1 to 5	− (“−” represents a fold difference less than 10)	> 5
Cc1c(-c2cc(-c3nn(C)c4cc(Cl)ccc34)cc3snc(O[C@H](Cc4ccccc4OCc4ccnn4CC(F)(F)F)C(=O)O)c23)ccc(OCCN2CCN(C)CC2)c1Cl [Compound 94]	> 1.5			> 5	− (“−” represents a fold difference less than 10)	> 5
Cc1c(-c2cc(-c3nccc4cc(Cl)ccc34)cc3snc(O[C@H](Cc4ccccc4OCc4ccnn4CC(F)(F)F)C(=O)O)c23)ccc(OCCN2CCN(C)CC2)c1Cl [Compound 95]	> 1.5			> 5	− (“−” represents a fold difference less than 10)	> 5
Cn1nc(-c2cc(CC3CCC3)c3c(O[C@H](Cc4ccccc4OCc4ccnn4CC(F)(F)F)C(=O)O)nsc3c2)c2ccc(Cl)cc21 [Compound 96]	> 1.5			> 5	− (“−” represents a fold difference less than 10)	> 5
COc1ccccc1-c1nccc(COc2ccccc2C[C@@H](Oc2nsc3cc(-c4nn(C)c5cc(Cl)ccc45)cc(-c4ccc(OCCN5CCN(C)CC5)c(Cl)c4C)c23)C(=O)O)n1 [Compound 97]	0.501 to 1.5			1 to 5	− (“−” represents a fold difference less than 10)	> 5
Cc1c(-c2cc(-n3c(=O)n(C)c4cc(Cl)ccc43)cc3snc(O[C@H](Cc4ccccc4OCc4ccnn4CC(F)(F)F)C(=O)O)c23)ccc(OCCN2CCN(C)CC2)c1Cl [Compound 99]	> 1.5			> 5	− (“−” represents a fold difference less than 10)	> 5
Cc1c(-c2cc(-n3c(C)c(Cl)c4cc(Cl)cnc43)cc3snc(O[C@H](Cc4ccccc4OCc4ccnn4CC(F)(F)F)C(=O)O)c23)ccc(OCCN2CCN(C)CC2)c1Cl [Compound 100]	0.501 to 1.5			1 to 5	− (“−” represents a fold difference less than 10)	> 5
Cc1c(Cl)c2cc(Cl)cnc2n1-c1cc(CC2CCC2)c2c(O[C@H](Cc3ccccc3OCc3ccnn3CC(F)(F)F)C(=O)O)nsc2c1 [Compound 101]	> 1.5			> 5	− (“−” represents a fold difference less than 10)	> 5
